Measured values reported in patent US10517889B2, “Modulators of SMAD7 expression” (Ionis Pharmaceuticals, Inc., priority 2017, dated 2019).

How the values were obtained:
[1] = Pharmacokinetics: oligonucleotide concentration in the plasma on day 28 after oral gavage in beagle dogs (Example 12); assay type: in vivo; details: 200 mg oral gavage
Procedure: There were 4 animals per group.
Plasma concentrations of Ionis oligonucleotides were also measured on Day 28 at various time points.

human SMAD7 mRNA [2] = experiment: Dose-dependent inhibition of human SMAD7 mRNA expression in A431 cells, oligonucleotide added without transfection (Example 5, Study 1); assay type: cell-based; details: approximately 48 hours
Procedure, shortened: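 A431 cells dosed with antisense oligonucleotide at 0.08–20.00 μM by free uptake immediately after plating, 48 h at 37° C. SMAD7 mRNA quantified by qRT-PCR (primer probe set RTS5062), normalised to RiboGreen total RNA. Values are % inhibition versus untreated cells.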

human SMAD7 mRNA [3] = experiment: Dose-dependent inhibition of human SMAD7 mRNA expression in Hep3B cells (Example 3, Study 1 and 2); assay type: cell-based; details: electroporation; for % inhibition of SMAD7 mRNA expression: approximately 16 hours
Procedure, shortened: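 Hep3B cells, 20,000 per well, electroporated with antisense oligonucleotide at 0.31, 1.25, 5.00 or 20.00 μM (first series) or 0.74, 2.22, 6.67 or 20.00 μM (second series). After ~16 h, SMAD7 mRNA measured by RT-qPCR (RTS5062), normalised to RIBOGREEN total RNA. Percent inhibition vs untreated cells; IC50 derived.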

[4] = Organ weights after oral gavage in beagle dogs (Example 12); details: 200 mg oral gavage for 4 weeks, day 30
Procedure: (§1) Groups of 24-25 week old male beagle dogs were administered 200 mg Ionis human SMAD7 oligonucleotide by oral gavage once a week for 4 weeks. There were 4 animals per group. A control group of dogs received oral administration of distilled water. Dogs were sacrificed on day 30 approximately 48 hours after the final dose and organs and plasma were harvested for further analysis.

[5] = Plasma chemistry markers after oral gavage in beagle dogs (Example 12); details: 200 mg oral gavage for 4 weeks, plasma at day 30
Procedure: The study was conducted to evaluate the tolerability and pharmacodynamics of select human SMAD7 antisense oligonucleotides in beagle dogs following 4 weeks of treatment. The dogs were administered oligonucleotides by oral gavage.
as §1
To evaluate the effect of Ionis SMAD7 oligonucleotides on liver and kidney function, approximately 1.5 mL of blood samples were collected and put into tubes without anticoagulant for serum separation. The tubes were kept at room temperature for a minimum of 90 min and then centrifuged (approximately 3,000 rpm for 10 min) to obtain serum. Plasma levels of transaminases, albumin, bilirubin, and BUN were measured using an automated clinical chemistry analyzer (Toshiba 200FR Neo chemistry analyzer, Toshiba Co., Japan).

murine Smad7 mRNA = experiment: Dose-dependent inhibition of murine Smad7 mRNA in bEND cells, electroporation (Example 5, Study 2); assay type: cell-based, mouse; details: electroporation; for % inhibition of SMAD7 mRNA expression: approximately 16 hours
Procedure, shortened: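 Mouse bEND cells electroporated with oligonucleotide at several doses and treated for approximately 16 hours. Smad7 mRNA quantified by real-time RT-PCR (primer probe set RTS1114), normalised to total RNA by RiboGreen. Reported as percent inhibition relative to untreated cells.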

mouse Smad7 mRNA = experiment: Murine Smad7 mRNA expression after oral administration in BALB/c mice (Example 11); assay type: in vivo; details: 500 mg/kg/day oral for 3 weeks, 24 hours after last dose
Procedure, shortened: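 BALB/c mice (4 per group) dosed orally with Smad7 antisense oligonucleotides at 500 mg/kg/day for 3 weeks; PBS-dosed group as control. Murine Smad7 mRNA quantified in liver, kidneys, duodenum, ileum and colon with primer probe set RTS1114.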

With “830025 (antisense TTTGTAAATCGAAAGC; 3-10-3 cEt gapmer, further chemistry not given here) [compound 830025]” the “Oligonucleotide concentration in the plasma on day 28” value (“Oligonucleotide concentration” below) ([1]; 2 hr) was 13.6 ng/mL, the “Oligonucleotide concentration” value ([1]; 4 hr) was 3.8 ng/mL and the “Oligonucleotide concentration” value ([1]; 8 hr) was 1.7 ng/mL. The “Oligonucleotide concentration” value ([1]; 24 hr) was 0.0 ng/mL, the “% inhibition of SMAD7 mRNA expression” value (human SMAD7 mRNA [2]; 0.08 μM) was 16% and the “% inhibition of SMAD7 mRNA expression” value (human SMAD7 mRNA [2]; 0.25 μM) was 30%. The “% inhibition of SMAD7 mRNA expression” value (human SMAD7 mRNA [2]; 0.74 μM) was 22%, the “% inhibition of SMAD7 mRNA expression” value (human SMAD7 mRNA [2]; 2.22 μM) was 41% and the “% inhibition of SMAD7 mRNA expression” value (human SMAD7 mRNA [2]; 6.67 μM) was 54%. For the same substance, the “% inhibition of SMAD7 mRNA expression” value (human SMAD7 mRNA [2]; 20.00 μM) was 67%, the IC50 (human SMAD7 mRNA [2]; SMAD7 mRNA) was 4700 nM and the “% inhibition of SMAD7 mRNA expression” value (human SMAD7 mRNA [3]; 740 nM, Study 2, relative to untreated control cells) was 42%. The “% inhibition of SMAD7 mRNA expression” value (human SMAD7 mRNA [3]; 2220 nM, Study 2) was 58%, the “% inhibition of SMAD7 mRNA expression” value (human SMAD7 mRNA [3]; 6670.0 nM, Study 2) was 72% and the “% inhibition of SMAD7 mRNA expression” value (human SMAD7 mRNA [3]; 20000.0 nM, Study 2) was 88%. The IC50 (human SMAD7 mRNA [3]; Study 2 (740-20000 nM)) was less than 700 nM, the “Kidney weight (% of control)” value [4] was 99 % of control and the “Liver weight (% of control)” value [4] was 79 % of control. The “Spleen weight (% of control)” value [4] was 87 % of control, the “ALT (% of control)” value [5] was 117 % of control and the “AST (% of control)” value [5] was 106 % of control. The “Albumin (% of control)” value [5] was 96 % of control, the “BUN (% of control)” value [5] was 93 % of control and the “Bilirubin (% of control)” value [5] was 96 % of control. For the same substance, the “% inhibition of SMAD7 mRNA expression” value (murine Smad7 mRNA; 0.25 μM) was 15%, the “% inhibition of SMAD7 mRNA expression” value (murine Smad7 mRNA; 0.74 μM) was 27% and the “% inhibition of SMAD7 mRNA expression” value (murine Smad7 mRNA; 2.22 μM) was 51%. For the same substance, the “% inhibition of SMAD7 mRNA expression” value (murine Smad7 mRNA; 6.67 μM) was 67%, the “% inhibition of SMAD7 mRNA expression” value (murine Smad7 mRNA; 20.00 μM) was 77% and the IC50 (murine Smad7 mRNA) was 2700 nM. The “Mouse Smad7 mRNA expression (% inhibition), Colon” value (mouse Smad7 mRNA; colon) was 39 % inhibition, the “Mouse Smad7 mRNA expression (% inhibition), Duodenum” value (mouse Smad7 mRNA; duodenum) was 51 % inhibition and the “Mouse Smad7 mRNA expression (% inhibition), Ileum” value (mouse Smad7 mRNA; ileum) was 0 % inhibition. For the same substance, the “Mouse Smad7 mRNA expression (% inhibition), Kidney” value (mouse Smad7 mRNA; kidney) was 31 % inhibition and the “Mouse Smad7 mRNA expression (% inhibition), Liver” value (mouse Smad7 mRNA; liver) was 25 % inhibition.
